Columns and labels:
[1] = tested on: human lung cancer strain NCI-H441; experiment: cells; conditions: NCI-H441, 96 h, read-out: NCI-H441 IC50 (nM)
[2] = biological target: GDP-bound NRAS wild-type protein (Homo sapiens, UniProt P01111); experiment: Binding to NRAS by surface plasmon resonance (SPR), Single Cycle Kinetics; conditions: SPR; KD ratio class
[3] = biological target: GDP-bound HRAS wild-type protein (Homo sapiens, UniProt P01112); experiment: Binding to HRAS by surface plasmon resonance (SPR), Single Cycle Kinetics; conditions: SPR; KD ratio class
GDP-bound HRAS wild-type protein, sequence (P01112 whole entry): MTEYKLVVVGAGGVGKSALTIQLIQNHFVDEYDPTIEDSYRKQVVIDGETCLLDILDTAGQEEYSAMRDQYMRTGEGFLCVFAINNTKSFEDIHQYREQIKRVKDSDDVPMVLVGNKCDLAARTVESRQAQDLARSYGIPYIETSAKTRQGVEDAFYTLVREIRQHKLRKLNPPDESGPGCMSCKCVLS

GDP-bound NRAS wild-type protein, sequence (P01111 whole entry): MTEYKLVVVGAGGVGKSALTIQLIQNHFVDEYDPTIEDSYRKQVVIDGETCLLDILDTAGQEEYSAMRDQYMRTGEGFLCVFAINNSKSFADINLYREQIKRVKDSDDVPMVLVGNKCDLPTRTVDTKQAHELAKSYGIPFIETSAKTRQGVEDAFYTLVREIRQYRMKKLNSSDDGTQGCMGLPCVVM

SMILES: CCO[C@@H]1C[C@H]2C(=O)NC3(CCC3)C(=O)N(C)[C@@H](C(CC)CC)C(=O)N(C)[C@H](C(=O)N(C)C)CC(=O)N(C)[C@@H](CC3CCCC3)C(=O)N[C@@H]([C@@H](C)CC)C(=O)N(C)CC(=O)N(C)[C@H]3C/C=C\CCN(C3=O)[C@@H](CC3CCC(F)(F)CC3)C(=O)N(C)CC(=O)N[C@@H](CCc3cc(F)c(C(F)(F)F)c(F)c3)C(=O)N2C1 [PP1431]
- IC50 [1]: 41.2 nM
- NRAS/KRAS (ratio of KD value for GDP-bound NRAS wild-type protein to KD value for KRAS) [2]: AA (a compound having 20 or more is denoted as AA)
- HRAS/KRAS (ratio of KD value for GDP-bound HRAS wild-type protein to KD value for KRAS) [3]: A (a compound having 10 or more and less than 20 is denoted as A)

SMILES: CCO[C@@H]1C[C@H]2C(=O)NC3(CCC3)C(=O)N(C)[C@@H](C(CC)CC)C(=O)N(C)[C@H](C(=O)N(C)C)CC(=O)N(C)[C@@H](CC(C)C)C(=O)N[C@@H]([C@@H](C)CC)C(=O)N(C)CC(=O)N(C)[C@H]3C/C=C\CCN(C3=O)[C@@H](CC3CCCCC3)C(=O)N(C)CC(=O)N[C@@H](CCc3cc(F)c(C(F)(F)F)c(F)c3)C(=O)N2C1 [PP1432]
- IC50 [1]: 51.3 nM
- NRAS/KRAS (ratio of KD value for GDP-bound NRAS wild-type protein to KD value for KRAS) [2]: AA (a compound having 20 or more is denoted as AA)
- HRAS/KRAS (ratio of KD value for GDP-bound HRAS wild-type protein to KD value for KRAS) [3]: A (a compound having 10 or more and less than 20 is denoted as A)

SMILES: CCO[C@@H]1C[C@H]2C(=O)NC3(CCC3)C(=O)N(C)[C@@H](C(CC)CC)C(=O)N(C)[C@H](C(=O)N(C)C)CC(=O)N(C)[C@@H](CC(C)C)C(=O)N[C@@H]([C@@H](C)CC)C(=O)N(C)CC(=O)N(C)[C@H]3C/C=C\CCN(C3=O)[C@@H](CC3CCC(F)(F)CC3)C(=O)N(C)CC(=O)N[C@@H](CCc3cc(F)c(C(F)(F)F)c(F)c3)C(=O)N2C1 [PP1433]
- IC50 [1]: 44.4 nM
- NRAS/KRAS (ratio of KD value for GDP-bound NRAS wild-type protein to KD value for KRAS) [2]: AA (a compound having 20 or more is denoted as AA)
- HRAS/KRAS (ratio of KD value for GDP-bound HRAS wild-type protein to KD value for KRAS) [3]: A (a compound having 10 or more and less than 20 is denoted as A)

SMILES: CCO[C@@H]1C[C@H]2C(=O)NC3(CCC3)C(=O)N(C)[C@@H](C(CC)CC)C(=O)N(C)[C@H](C(=O)N3CCCC3)CC(=O)N(C)[C@@H](C)C(=O)N[C@@H]([C@@H](C)CC)C(=O)N(C)CC(=O)N(C)[C@H]3C/C=C\CCN(C3=O)[C@@H](CC3CCCCC3)C(=O)N(C)CC(=O)N[C@@H](CCc3cc(F)c(C(F)(F)F)c(F)c3)C(=O)N2C1 [PP1434]
- IC50 [1]: 112 nM
- NRAS/KRAS (ratio of KD value for GDP-bound NRAS wild-type protein to KD value for KRAS) [2]: A (a compound having 10 or more and less than 20 is denoted as A)
- HRAS/KRAS (ratio of KD value for GDP-bound HRAS wild-type protein to KD value for KRAS) [3]: A (a compound having 10 or more and less than 20 is denoted as A)

SMILES: CCO[C@@H]1C[C@H]2C(=O)NC3(CCCC3)C(=O)N(C)[C@@H](C(CC)CC)C(=O)N(C)[C@H](C(=O)N3CCCC3)CC(=O)N(C)[C@@H](C)C(=O)N[C@@H]([C@@H](C)CC)C(=O)N(C)CC(=O)N(C)[C@H]3C/C=C\CCN(C3=O)[C@@H](CC3CCCCC3)C(=O)N(C)CC(=O)N[C@@H](CCc3cc(F)c(C(F)(F)F)c(F)c3)C(=O)N2C1 [PP1435]
- IC50 [1]: 178 nM
- NRAS/KRAS (ratio of KD value for GDP-bound NRAS wild-type protein to KD value for KRAS) [2]: A (a compound having 10 or more and less than 20 is denoted as A)
- HRAS/KRAS (ratio of KD value for GDP-bound HRAS wild-type protein to KD value for KRAS) [3]: A (a compound having 10 or more and less than 20 is denoted as A)

SMILES: CCO[C@@H]1C[C@H]2C(=O)NC3(CCC3)C(=O)N(C)[C@@H](C(CC)CC)C(=O)N(C)[C@H](C(=O)N3CCCC3)CC(=O)N(C)[C@@H](C)C(=O)N[C@@H]([C@@H](C)CC)C(=O)N(C)CC(=O)N(C)[C@H]3C/C=C\CCN(C3=O)[C@@H](CC3CCC(F)(F)CC3)C(=O)N(C)CC(=O)N[C@@H](CCc3cc(F)c(C(F)(F)F)c(F)c3)C(=O)N2C1 [PP1436]
- IC50 [1]: 47.4 nM
- NRAS/KRAS (ratio of KD value for GDP-bound NRAS wild-type protein to KD value for KRAS) [2]: AA (a compound having 20 or more is denoted as AA)
- HRAS/KRAS (ratio of KD value for GDP-bound HRAS wild-type protein to KD value for KRAS) [3]: A (a compound having 10 or more and less than 20 is denoted as A)

SMILES: CCO[C@@H]1C[C@H]2C(=O)NC3(CCCC3)C(=O)N(C)[C@@H](C(CC)CC)C(=O)N(C)[C@H](C(=O)N3CCCC3)CC(=O)N(C)[C@@H](C)C(=O)N[C@@H]([C@@H](C)CC)C(=O)N(C)CC(=O)N(C)[C@H]3C/C=C\CCN(C3=O)[C@@H](CC3CCC(F)(F)CC3)C(=O)N(C)CC(=O)N[C@@H](CCc3cc(F)c(C(F)(F)F)c(F)c3)C(=O)N2C1 [PP1437]
- IC50 [1]: 220 nM
- NRAS/KRAS (ratio of KD value for GDP-bound NRAS wild-type protein to KD value for KRAS) [2]: A (a compound having 10 or more and less than 20 is denoted as A)
- HRAS/KRAS (ratio of KD value for GDP-bound HRAS wild-type protein to KD value for KRAS) [3]: A (a compound having 10 or more and less than 20 is denoted as A)

SMILES: CCO[C@@H]1C[C@H]2C(=O)NC3(CCC3)C(=O)N(C)[C@@H](C(CC)CC)C(=O)N(C)[C@H](C(=O)N3CCCC3)CC(=O)N(C)[C@@H](COC)C(=O)N[C@@H]([C@@H](C)CC)C(=O)N(C)CC(=O)N(C)[C@H]3C/C=C\CCN(C3=O)[C@@H](CC3CCCCC3)C(=O)N(C)CC(=O)N[C@@H](CCc3cc(F)c(C(F)(F)F)c(F)c3)C(=O)N2C1 [PP1438]
- IC50 [1]: 89.4 nM
- NRAS/KRAS (ratio of KD value for GDP-bound NRAS wild-type protein to KD value for KRAS) [2]: AA (a compound having 20 or more is denoted as AA)
- HRAS/KRAS (ratio of KD value for GDP-bound HRAS wild-type protein to KD value for KRAS) [3]: A (a compound having 10 or more and less than 20 is denoted as A)

SMILES: CCO[C@@H]1C[C@H]2C(=O)NC3(CCCC3)C(=O)N(C)[C@@H](C(CC)CC)C(=O)N(C)[C@H](C(=O)N3CCCC3)CC(=O)N(C)[C@@H](COC)C(=O)N[C@@H]([C@@H](C)CC)C(=O)N(C)CC(=O)N(C)[C@H]3C/C=C\CCN(C3=O)[C@@H](CC3CCCCC3)C(=O)N(C)CC(=O)N[C@@H](CCc3cc(F)c(C(F)(F)F)c(F)c3)C(=O)N2C1 [PP1439]
- IC50 [1]: 87.3 nM
- NRAS/KRAS (ratio of KD value for GDP-bound NRAS wild-type protein to KD value for KRAS) [2]: AA (a compound having 20 or more is denoted as AA)
- HRAS/KRAS (ratio of KD value for GDP-bound HRAS wild-type protein to KD value for KRAS) [3]: A (a compound having 10 or more and less than 20 is denoted as A)

SMILES: CCO[C@@H]1C[C@H]2C(=O)NC3(CCC3)C(=O)N(C)[C@@H](C(CC)CC)C(=O)N(C)[C@H](C(=O)N3CCCC3)CC(=O)N(C)[C@@H](COC)C(=O)N[C@@H]([C@@H](C)CC)C(=O)N(C)CC(=O)N(C)[C@H]3C/C=C\CCN(C3=O)[C@@H](CC3CCC(F)(F)CC3)C(=O)N(C)CC(=O)N[C@@H](CCc3cc(F)c(C(F)(F)F)c(F)c3)C(=O)N2C1 [PP1440]
- IC50 [1]: 69.7 nM
- NRAS/KRAS (ratio of KD value for GDP-bound NRAS wild-type protein to KD value for KRAS) [2]: AA (a compound having 20 or more is denoted as AA)
- HRAS/KRAS (ratio of KD value for GDP-bound HRAS wild-type protein to KD value for KRAS) [3]: A (a compound having 10 or more and less than 20 is denoted as A)

SMILES: CCO[C@@H]1C[C@H]2C(=O)NC3(CCCC3)C(=O)N(C)[C@@H](C(CC)CC)C(=O)N(C)[C@H](C(=O)N3CCCC3)CC(=O)N(C)[C@@H](COC)C(=O)N[C@@H]([C@@H](C)CC)C(=O)N(C)CC(=O)N(C)[C@H]3C/C=C\CCN(C3=O)[C@@H](CC3CCC(F)(F)CC3)C(=O)N(C)CC(=O)N[C@@H](CCc3cc(F)c(C(F)(F)F)c(F)c3)C(=O)N2C1 [PP1441]
- IC50 [1]: 87.6 nM
- NRAS/KRAS (ratio of KD value for GDP-bound NRAS wild-type protein to KD value for KRAS) [2]: A (a compound having 10 or more and less than 20 is denoted as A)
- HRAS/KRAS (ratio of KD value for GDP-bound HRAS wild-type protein to KD value for KRAS) [3]: A (a compound having 10 or more and less than 20 is denoted as A)

— patent US20250230193A1, “CYCLIC COMPOUND HAVING SELECTIVE KRAS INHIBITORY EFFECT ON HRAS AND NRAS” (CHUGAI SEIYAKU KABUSHIKI KAISHA, priority 2022, published 2025)
